Data reported in US6500800B1, “Composition and method for causing photodynamic damage to target cells” (priority 1996, dated 2002).
Like-named read-outs stand apart in the source and are kept apart here.

Test system: Human hepatoma PLC/PRF/5 cells
Test: Photodynamic damage (PDD), survival rate of cells versus concentration after irradiation
Type: cell-based
Excerpt: A stands for (P10)-insulin-(chlorin e6); B stands for (β-galactosidase)-insulin-(chlorin e6); C stands for chlorin e6; […] Survival rate of human hepatoma PLC/PRF/5 cells plotted against concentration of compositions and chlorin e6 is depicted in FIGS. 2 and 3.

Which EC50 (irradiation dose of 12.3 kJ/m^2, read-out: EC50 value (concentration of a semi-maximal effect)) does the source give for `C=Cc1c(C)c2cc3nc(c(CC(=O)O)c4[nH]c(cc5nc(cc1[nH]2)C(C)=C5CC)c(C)c4C(=O)O)[C@@H](CCC(=O)O)[C@@H]3C` [chlorin e6] here?
The EC50 was 11.5 µM.

What about the EC50 (irradiation dose of 96 kJ/m^2, read-out: EC50 value) of the same compound?
Its EC50 is 0.35 µM.
